Measured values reported in patent US20190054093A1, “TREATMENT OF SARCOPENIA WITH ECDYSTEROIDS” (priority 2014, published 2019).
Like-named read-outs stand apart in the source and are kept apart here.

How the values were obtained:
MCF7-AR1 cells = experiment: A-Screen bioassay: androgen-dependent inhibition of E2-induced proliferation; type: cell-based; settings: Homo sapiens; in the presence of E2; read-out: IC50 of inhibition of cell proliferation
Experimental: In this example ATE and RCE were assessed for androgenic activity using the A-screeen assay. MCF7-AR1 is a human cancer-derived cell line which has been genetically engineered to overexpress the androgenic receptor (AR). […] This assay measures androgen-dependent inhibition of proliferation of the androgen receptor (AR)-positive human mammary carcinoma cell line, MCF7-AR1. This cell line has been stably transfected with a full human AR and expresses approximately five times more AR than wild-type cells. MCF7-AR1 cells retain the capacity to proliferate in response to estrogen treatment (E2). Androgens inhibit estrogen-induced proliferation and cells arrest in G0/G1 phase in a dose-dependent manner.
The A-Screen bioassay compares the cell number of similar inocula of MCF-7-AR1 cells growing in media in the absence of any estrogen and androgens (C−, negative control), in the presence of E2 (C+, estrogen control) and in the presence of E2 in combination with different concentrations of the suspected androgen (FIG. 11). Androgenic activity of a test compound results in the inhibition of cell proliferation compared to the E2 control.

[1] = tested on: protein synthesis in mouse liver; settings: actinomycin D 2 mg/kg 30 minutes before the test substance; cited from earlier work
[2] = tested on: polyribosomes from the livers of mice; settings: cited from earlier work
[3] = cited from earlier work
[4] = tested on: Caspase-3 expression in C2C12 myotubes; experiment: Caspase 3 expression in C2C12 myotubes (quantitative RT-PCR, Example 4); type: cell-based, mouse; settings: 24 hours; extracts and turkesterone 0.002, 0.02 and 2 ppm, 20HE 0.001, 0.01 and 1 ppm
Experimental: Experiments similar to those in example 1 have been carried out with two other plant-derived, ecdysteroid-rich extracts. […] Cells between passages 3 and 10 were seeded at a density of 10,000 cells per cm^2. Cells were grown for 48 h until they reached 80-90% confluence. […] Cells were maintained at 37° C. in a humidified 5% CO2 incubator and medium was changed every other day.
For RNA and protein extraction C2C12 myotubes were incubated with 0.002, 0.02 and 2 ppm of Rhaponticum carthamoides extract (RCE) and Cyanotis arachnoidea extract (CAE) or 0.001, 0.01 and 1 ppm of 20-hydroxyecdysone or 0.002, 0.02 and 2 ppm of Turkesterone for 24 hours. These two latter served as positive controls. RNA and protein were extracted using All Prep RNA/Protein Kit (Qiagen, Spain). RNA was stored at −80° C. and protein at −20° C. until further use. Total RNA was quantified using a fluorometric method with Quant-iT kit (Invitrogen, Spain). The cDNA was reverse-transcribed from the RNA extract using RT^2First Stand cDNA kit (Qiagen, Spain). Quantitative real-time RT-PCR for Caspase-3 and Myostatin were carried out using a MX3005P Q-PCR System (Agilent Technologies) and SYBR-Green/ROX detection. The housekeeping gene used was Actb and Mouse XpressRef Universal total RNA (Qiagen, Spain) as a positive control. […] The fold change in gene expression was calculated with ΔΔCt Method.

C2C12 myotubes = experiment: Protein synthesis by radio-labeled leucine incorporation in C2C12 myotubes (Example 3); type: cell-based, mouse
[5] = cited from earlier work; for effect on the sexual apparatus (ventral prostate weight, seminal vesicle weight): sexually immature intact rats
[6] = tested on: myostatin (Mstn) gene expression in C2C12 muscle cells; experiment: Myostatin gene expression in C2C12 myotubes (RT2 Profiler PCR Array, Example 1); type: cell-based, mouse; settings: 20 ppm ATE or 1 μM methandrostenolone, 6 h
Experimental: (§1) The effect of Ajuga turkestanica extract (ATE) standardized to Turkesterone content was studied in muscle cells. […] Cells between passages 3 and 10 were seeded at a density of 10,000 cells per cm^2. Cells were grown for 48 h until they reached 80-90% confluence. […] Cells were maintained at 37° C. in a humidified 5% CO2 incubator and medium was changed every other day.
(§2) For RNA extraction, C2C12 cells were plated and differentiated to myotubes into 12-wells plates. […] RNA was then extracted using an All Prep RNA/Protein Kit (Qiagen, Spain). Total RNA was quantified using a fluorometric method with Quant-iT kit (Invitrogen, Spain). RNA was stored at −80° C. until further use. cDNA was reverse-transcribed from the RNA extract using RT^2 First Stand cDNA kit and we used a RT^2 Profiler PCR Array to analyze a panel of 84 genes involved in skeletal muscle development and disease (Qiagen, Spain). Quantitative real-time RT-PCR was carried out using a SYBR-Green/ROX detection in a MX3005P Q-PCR System. Samples were heated at 95° C. for 10 min, followed by a second stage composed of 15 sec at 95° C., 1 min at 60° C. which was repeated 40 times and third stage for dissociation curve composed of 1 min at 95° C., 30 sec at 55° C. and 30 sec at 95° C. The PCR-array data was analyzed by calculating relative gene expression and statistical significance through the use of known methods.

[7] = tested on: Caspase-3 (Casp3) gene expression in C2C12 muscle cells; experiment: Caspase-3 gene expression in C2C12 myotubes (RT2 Profiler PCR Array, Example 1); type: cell-based, mouse; settings: 20 ppm ATE or 1 μM methandrostenolone, 6 h
Experimental: as §1, §2

[8] = castrated sexually immature rats
[9] = sexually immature intact rats, 0.5 mg per 100 g intragastrically daily for 10 days
[10] = sexually mature male rats, 0.5 mg per 100 g intragastrically daily for 10 days

Compound	IC50 (MCF7-AR1 cells)	effect of actinomycin D on the stimulation of liver protein synthesis [1]	ratio of test to control (weight gain) [3, 8]	weight gain [3, 9]	ratio of test to control (weight gain) ([3]; sexually immature intact rats)	total protein content of organs ([3]; sexually immature intact rats)	weight of the ventral prostate and seminal vesicles [5, 8]	effect on the sexual apparatus (ventral prostate weight, seminal vesicle weight) [5]	weight of the ventral prostate and seminal vesicles [5, 10]	further results
C[C@]1(O)CC[C@H]2[C@@H]3CCC4=CC(=O)CCC4=C3C=C[C@@]21C [Example R1881, methyltrienolone]	0.02 nM	–	–	–	–	–	–	–	–	–
C[C@]12C=CC(=O)C=C1CC[C@@H]1[C@@H]2CC[C@@]2(C)[C@H]1CC[C@]2(C)O [Nerobol]	–	almost totally removed the effect	–	–	–	–	–	–	–	increase of protein synthesis in the system of polyribosomes and cellular fluid from livers of treated animals ([2]; mice, Nerobol 1.0 mg/100 g, P<0.001): 14%
CC(C)(O)CC[C@@H](O)[C@](C)(O)[C@H]1CC[C@@]2(O)C3=CC(=O)[C@@H]4C[C@@H](O)[C@@H](O)C[C@]4(C)[C@H]3[C@H](O)C[C@]12C [turkesterone]	–	no noticeable effect	1.8	38 mg per 1 g initial weight per day	2.6	statistically significant increase	did not change	pronounced effect	did not change significantly	body weight gain [3, 10]: 9.7 mg per 1 g weight per day; body weight gain relative to control [3, 10]: 2 times; ratio of translating to nontranslating ribosomes ([2]; mouse liver, control group 3.98): 3.80; regulation of Caspase 3 expression [4]: significant effect in down regulation; protein synthesis, % of control (C2C12 myotubes; 40 nM): 110 % of control; protein synthesis, % of control (peak effect) (C2C12 myotubes; 0.1 μM): 120 % of control
turkesterone tetraacetate	–	–	1.9	37.2 mg per 1 g initial weight per day	2.5	statistically significant increase	did not change	pronounced effect	did not change significantly	heart weight and weight of the anterior tibial muscle [3, 10]: statistically significant increase
C[C@]12C=CC(=O)C=C1CC[C@@H]1[C@@H]2CC[C@@]2(C)[C@H]1CC[C@]2(C)O [methandrostenolone]	0.35 nM	–	–	–	–	–	–	–	–	down-regulation of Myostatin [6]: < 2 fold; down-regulation of caspase-3 [7]: < 2 fold; effect on protein synthesis (C2C12 myotubes; concentrations up to 10 μM): no significant effect
